Read-outs that look alike come from different tables or passages of the source.
Assays:
[1] = Minipump infusion of psilocybin over 12 days: plasma/blood exposure; assay type: in vivo, rats
Protocol: A dose of psilocybin, which is free from perceptual and behavioral side effects, was dosed in rats (N=24) continuously over a period of 12 days using an Alzet minipump implanted in rats of approximately 380-390 g body weight. The pump was primed to deliver psilocybin at 5 mg/kg/day pump concentration. The target plasma concentration was 10 ng/ml psilocin with actual plasma concentration 9.3+1.3 ng/ml over the 12 day study period.
Blood was collected from rats on days 4, 8 and 12 to measure levels of psilocybin and psilocin in Group B rats. Blood was collected via saphenous bleed at a standard timepoint which will not interfere with 5-choice testing. Psilocin blood levels were in the range of 8-10 ng/ml over days 4-12, while psilocybin blood levels were in the range of 2-5 ng/ml over days 4-12 (FIG. 7A), corresponding to 10 ng/mL psilocin. […] The present observations recorded for psilocybin/psilocin are occurring at exposure levels of psilocin ˜10 ng/ml (e.g., FIG. 5), likely resulting in a low level of CNS 5-HT2A receptor occupancy, and which is insufficient to elicit cardinal signs of 5-HT2A receptor activation such as WDS/BMC in rats (e.g., FIG. 1B).

[2] = Psilocybin and psilocin plasma pharmacokinetics after s.c. psilocybin; assay type: in vivo, rats; settings: for Cmax / concentration at 0.25 h / concentration at 0.5 h / concentration at 0.75 h / concentration at 1 h / concentration at 2 h / concentration at 4 h / concentration at 6 h / Tmax / AUC(0-inf) / AUC(0-t) / half-life / MRT inf: rat, rats; for Cmax / concentration at 0.25 h / concentration at 0.5 h / concentration at 0.75 h / concentration at 1 h / concentration at 2 h / concentration at 4 h / concentration at 6 h: plasma; for AUC(0-inf): read-out: AUC0-inf, Mean; for AUC(0-t): read-out: AUC0-tlast, Mean; for half-life: read-out: Apparent t1/2, Mean (converted); for MRT inf: read-out: MRT0-inf, Mean
Protocol: Psilocybin doses of 0.05, 0.1, 1, 10 mg/kg were used to evaluate psilocybin and psilocin PK in rats. For the doses of psilocybin that positively effect behaviors in the low performers in the PR and 5CSRTT, e.g., 0.05-0.1 mg/kg, the corresponding Cm. of psilocin was ˜7±2 ng/ml at 30 minutes for 0.05 mg/kg, and at a dose of 0.1 mg/kg, the Cm. of psilocin was determined to be ˜12±3 ng/ml at 30 minutes (FIG. 5).
Details of the plasma concentration studies are shown in Tables 1-8 (psilocybin) and 9-16 (psilocin). Values in italics are below the lower level of quantitation (BLQ, <1 ng/mL) but were included in calculations. Values in bold and underlined are considered to be outliers and were omitted from calculations. Measured dosing solution concentrations were 0.0460, 0.0967, 0.948 and 9.65 mg/mL for 0.05, 0.1, 1 and 10 […].

[3] = subcutaneous, after psilocybin 0.05 mg/kg s.c.
[4] = subcutaneous, after psilocybin 0.1 mg/kg s.c.
[5] = subcutaneous, after psilocybin 1 mg/kg s.c.
[6] = subcutaneous, after psilocybin 10 mg/kg s.c.
[7] = sc, psilocin in plasma after psilocybin 0.05 mg/kg s.c.
[8] = sc, psilocin in plasma after psilocybin 0.1 mg/kg s.c.
[9] = sc, psilocin in plasma after psilocybin 1 mg/kg s.c.
[10] = sc, psilocin in plasma after psilocybin 10 mg/kg s.c.

Question: Which “Plasma [psilocin]” value ([1]; Regimen 4, mini-pump chronic, improvement in attention in 10 s ITI 5-choice test) does the source give for `CN(C)CCc1c[nH]c2cccc(O)c12` [psilocin, 4-hydroxy-N,N-dimethyltryptamine] here?
Answer: ~10 ng/mL

Question: What about the “actual plasma concentration of psilocin” value ([1]; psilocybin minipump 5 mg/kg/day, over the 12 day study period, rats) of the same molecule?
Answer: 9.3 ± 1.3 ng/mL

Question: What about the Psilocin blood levels ([1]; psilocybin minipump, days 4-12, rats) of the same molecule?
Answer: 8 to 10 ng/mL

Question: And the “Plasma [psilocin]” value ([2]; Regimen 1, 0.05-0.1 mg/kg acute, increase in breakpoint under PR schedule (low performer subgroup))?
Answer: ~5 to 12 ng/mL

Question: And the “Plasma [psilocin]” value ([2]; Regimen 2, 0.05-0.1 mg/kg acute, improvement in attention and response speed in 5-choice test (low performer subgroup))?
Answer: ~5 to 12 ng/mL

Question: What about the “Plasma [psilocin]” value ([2]; Regimen 3, 0.05-0.1 mg/kg acute, increase in PREM/PSV response in 10 s ITI 5-choice test (low impulsive subgroup)) of the same molecule?
Answer: ~5 to 12 ng/mL

Question: And the “Plasma [psilocin]” value ([2]; Regimen 5, ≥0.3 mg/kg acute, induction of overt 5-HT2A behaviors of WDS/BMC)?
Answer: ≥25 ng/mL

Question: What about the Cmax ([2]; sc, 0.05 mg/kg, psilocin in plasma after psilocybin 0.05 mg/kg s.c., read-out: Cmax, Mean) of the same molecule?
Answer: 7.14 ng/mL

Question: What about the Cmax ([2]; sc, 0.05 mg/kg, psilocybin 0.05 mg/kg, after 30 mins, read-out: Cmax psilocin) of the same molecule?
Answer: ~6 ng/mL

Question: What about the Cmax ([2]; sc, 0.1 mg/kg, psilocin in plasma after psilocybin 0.1 mg/kg s.c., read-out: Cmax, Mean) of the same molecule?
Answer: 11.7 ng/mL

Question: And the Cmax ([2]; sc, 1 mg/kg, psilocin in plasma after psilocybin 1 mg/kg s.c., read-out: Cmax, Mean)?
Answer: 83.3 ng/mL

Question: And the Cmax ([2]; sc, 10 mg/kg, psilocin in plasma after psilocybin 10 mg/kg s.c., read-out: Cmax, Mean)?
Answer: 1110 ng/mL

Question: And the Cmax ([2]; subcutaneous, 0.05 mg/kg, psilocybin 0.05 mg/kg, after 30 mins, read-out: Cmax psilocin)?
Answer: ~7 ng/mL

Question: What about the Cmax ([2]; subcutaneous, 0.1 mg/kg, psilocybin 0.1 mg/kg, after 30 mins, read-out: Cmax psilocin) of the same molecule?
Answer: ~12 ng/mL

Question: What about the Cmax ([2]; subcutaneous, 1 mg/kg, psilocybin 1 mg/kg, after 30 mins, read-out: Cmax psilocin) of the same molecule?
Answer: ~83 ng/mL

Question: And the Cmax ([2]; subcutaneous, 10 mg/kg, psilocybin 10 mg/kg, after 30 mins, read-out: Cmax psilocin)?
Answer: ~1110 ng/mL

Question: What about the concentration at 0.25 h [2, 3] of the same molecule?
Answer: 3.76 ng/mL

Question: And the concentration at 0.5 h [2, 3]?
Answer: 5.68 ng/mL

Question: What about the concentration at 0.75 h [2, 3] of the same molecule?
Answer: 3.11 ng/mL

Question: What about the concentration at 1 h [2, 3] of the same molecule?
Answer: 5.91 ng/mL

Question: What about the concentration at 2 h [2, 3] of the same molecule?
Answer: 2.23 ng/mL

Question: And the concentration at 4 h [2, 3]?
Answer: 0.49 ng/mL

Question: What about the concentration at 6 h [2, 3] of the same molecule?
Answer: 0.136 ng/mL

Question: And the concentration at 0.25 h [2, 4]?
Answer: 9.35 ng/mL

Question: And the concentration at 0.5 h [2, 4]?
Answer: 12.3 ng/mL

Question: And the concentration at 0.75 h [2, 4]?
Answer: 7.73 ng/mL

Question: What about the concentration at 1 h [2, 4] of the same molecule?
Answer: 5.7 ng/mL

Question: And the concentration at 2 h [2, 4]?
Answer: 2.78 ng/mL

Question: And the concentration at 4 h [2, 4]?
Answer: 0.535 ng/mL

Question: And the concentration at 6 h [2, 4]?
Answer: 0.215 ng/mL

Question: And the concentration at 0.25 h [2, 5]?
Answer: 74.5 ng/mL

Question: What about the concentration at 0.5 h [2, 5] of the same molecule?
Answer: 76.6 ng/mL

Question: What about the concentration at 0.75 h [2, 5] of the same molecule?
Answer: 70.3 ng/mL

Question: What about the concentration at 1 h [2, 5] of the same molecule?
Answer: 69.9 ng/mL

Question: What about the concentration at 2 h [2, 5] of the same molecule?
Answer: 29.7 ng/mL

Question: What about the concentration at 4 h [2, 5] of the same molecule?
Answer: 5.5 ng/mL

Question: What about the concentration at 6 h [2, 5] of the same molecule?
Answer: 1.34 ng/mL

Question: What about the concentration at 0.25 h [2, 6] of the same molecule?
Answer: 704 ng/mL

Question: What about the concentration at 0.5 h [2, 6] of the same molecule?
Answer: 898 ng/mL

Question: What about the concentration at 0.75 h [2, 6] of the same molecule?
Answer: 1080 ng/mL

Question: And the concentration at 1 h [2, 6]?
Answer: 1070 ng/mL

Question: What about the concentration at 2 h [2, 6] of the same molecule?
Answer: 713 ng/mL

Question: What about the concentration at 4 h [2, 6] of the same molecule?
Answer: 269 ng/mL

Question: And the concentration at 6 h [2, 6]?
Answer: 132 ng/mL

Question: And the Tmax [2, 7]?
Answer: 36 min

Question: And the AUC(0-inf) [2, 7]?
Answer: 10.3 ng·h/mL

Question: And the AUC(0-t) [2, 7]?
Answer: 10.1 ng·h/mL

Question: What about the half-life [2, 7] of the same molecule?
Answer: 60 min

Question: And the MRT inf [2, 7]?
Answer: 104 min

Question: What about the Tmax [2, 8] of the same molecule?
Answer: 32.2 min

Question: What about the AUC(0-inf) [2, 8] of the same molecule?
Answer: 15.7 ng·h/mL

Question: And the AUC(0-t) [2, 8]?
Answer: 12.5 ng·h/mL

Question: And the half-life [2, 8]?
Answer: 55.1 min

Question: And the MRT inf [2, 8]?
Answer: 85.2 min

Question: And the Tmax [2, 9]?
Answer: 34.3 min

Question: What about the AUC(0-inf) [2, 9] of the same molecule?
Answer: 143 ng·h/mL

Question: And the AUC(0-t) [2, 9]?
Answer: 117 ng·h/mL

Question: And the half-life [2, 9]?
Answer: 52.7 min

Question: And the MRT inf [2, 9]?
Answer: 91.8 min

Question: What about the Tmax [2, 10] of the same molecule?
Answer: 42.8 min

Question: What about the AUC(0-inf) [2, 10] of the same molecule?
Answer: 3380 ng·h/mL

Question: And the AUC(0-t) [2, 10]?
Answer: 2280 ng·h/mL

Question: And the half-life [2, 10]?
Answer: 99 min

Question: What about the MRT inf [2, 10] of the same molecule?
Answer: 160 min

Reference: US20230233584A1, “EXTENDED RELEASE 5-HT RECEPTOR AGONISTS FOR NEUROLOGICAL CONDITIONS” (Diamond Therapeutics Inc., priority 2020, published 2023)
